# Assays:
# [1] = target: T1, human vanilloid receptor 1 (VR1) (Homo sapiens, UniProt Q8NER1); assay: FLIPR Ca2+ functional study on human vanilloid receptor 1 (CHO K1 cells transfected with human VR1); assay type: cell-based; details: for inhibition at 10 µM: CHO-K1, test compound 10 μM, suppression of Ca2+ current after 100 nM capsaicin, relative to maximum inhibition with 10 μM capsaicin (CP), read-out: VR1 (human) (% inhibition compared to 10 μM CP); for EC50: agonistic action
# T1 construct: expressed in transfected cells; host or cells: CHO K1 cells (ECACC), stably transfected
# T1 sequence (Q8NER1 whole entry): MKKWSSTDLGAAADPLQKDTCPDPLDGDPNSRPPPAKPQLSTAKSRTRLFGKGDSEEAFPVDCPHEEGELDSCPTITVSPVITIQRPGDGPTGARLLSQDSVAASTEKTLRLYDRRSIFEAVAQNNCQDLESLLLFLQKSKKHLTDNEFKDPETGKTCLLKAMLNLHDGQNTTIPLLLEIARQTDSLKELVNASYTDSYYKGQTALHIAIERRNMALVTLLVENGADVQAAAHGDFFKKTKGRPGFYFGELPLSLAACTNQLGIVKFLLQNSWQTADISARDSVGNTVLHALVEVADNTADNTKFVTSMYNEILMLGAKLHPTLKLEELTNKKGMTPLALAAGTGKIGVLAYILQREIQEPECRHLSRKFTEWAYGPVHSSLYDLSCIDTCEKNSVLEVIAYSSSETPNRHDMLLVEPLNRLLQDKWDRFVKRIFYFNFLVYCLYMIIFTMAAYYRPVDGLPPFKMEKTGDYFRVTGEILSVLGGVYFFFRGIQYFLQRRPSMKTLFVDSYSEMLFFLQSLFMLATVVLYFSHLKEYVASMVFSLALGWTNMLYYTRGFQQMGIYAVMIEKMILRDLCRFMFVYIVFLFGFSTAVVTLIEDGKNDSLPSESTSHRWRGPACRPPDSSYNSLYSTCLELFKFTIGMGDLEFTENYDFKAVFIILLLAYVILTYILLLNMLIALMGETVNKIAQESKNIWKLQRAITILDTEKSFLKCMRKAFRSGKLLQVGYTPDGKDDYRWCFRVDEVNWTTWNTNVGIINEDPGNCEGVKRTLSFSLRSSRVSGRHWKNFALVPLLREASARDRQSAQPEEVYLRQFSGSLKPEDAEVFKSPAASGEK
# Procedure: Chinese hamster ovary cells (CHO K1 cells, European Collection of Cell Cultures (ECACC), England) are transfected stably with the human vanilloid receptor 1 (VR1) gene or the vanilloid receptor 1 (VR1) gene of the rat. For functional studies, these cells are plated out onto poly-D-lysine-coated black 96-well plates with a clear bottom (BD Biosciences, Heidelberg, Germany) in a density of 25 000 cells/well. The cells are incubated overnight at 37° C. and 5% CO2 in culture medium (Ham's Nutrient Mixture F12, Gibco Invitrogen GmbH, Karlsruhe, Germany) with 10% by volume of FBS (fetal bovine serum, Gibco Invitrogen GmbH, Karlsruhe, Germany), and 18 μg/ml of L-proline (Gibco Invitrogen GmbH, Karlsruhe, Germany). The next day, the cells are laden with 2 μM Fluo-4 and 0.01% by volume of Pluronic F127 (Molecular Probes Europe BV, Leiden, The Netherlands) in HBSS buffer (Hank's buffered saline solution, Gibco Invitrogen GmbH, Karlsruhe, Germany) at 37° C. for 30 min. Subsequently, the plates are washed 3 times with HBSS buffer and, after a further incubation of 15 minutes at room temperature, used for Ca^2+ measurement in the FLIPR assay. The Ca^2+-dependent fluorescence is measured before and after addition of substances λex=488 nm, λem=540 nm). The quantification is effected by measuring the highest fluorescence intensity (FC, fluorescence counts) over the time.
# The FLIPR protocol consists of 2 substance additions. First, the compounds to be tested (10 μM) are pipetted onto the cells obtained according to Ia or Ib and the Ca^2+ current is compared with the control (capsaicin 10 μM). This gives rise to the result in % activation based on the Ca^2+ signal after addition of 10 μM capsaicin (CP). After incubation for 5 minutes, 100 nM capsaicin is applied and the current of Ca^2+ is likewise determined.
# Desensitizing agonists and antagonists lead to a suppression in the Ca^2+ current. % inhibition is calculated compared to the maximum achievable inhibition with 10 μM capsaicin.
# Triple determinations (n=3) are performed and they are repeated in at least 3 independent experiments (N=4).
# [2] = target: T2, vanilloid receptor 1 (VR1/TRPV1) of the rat (Rattus norvegicus, UniProt O35433); assay: FLIPR Ca2+ functional study on rat vanilloid receptor 1 (rat dorsal root ganglia cells or CHO K1 cells transfected with rat VR1); assay type: cell-based; details: for activation at 10 µM / inhibition at 10 µM: CHO-K1, test compound 10 μM; for activation at 10 µM: % activation based on Ca2+ signal after 10 μM capsaicin (CP), read-out: VR1 (rat) (% stimulation compared to 10 μM CP); for inhibition at 10 µM: suppression of Ca2+ current after 100 nM capsaicin, relative to maximum inhibition with 10 μM capsaicin (CP), read-out: VR1 (rat) (% inhibition compared to 10 μM CP); for EC50: agonistic action
# T2 construct: host or cells: rat dorsal root ganglia primary cells (Ia) or CHO K1 cells stably transfected with the rat VR1 gene (Ib)
# T2 sequence (O35433 whole entry): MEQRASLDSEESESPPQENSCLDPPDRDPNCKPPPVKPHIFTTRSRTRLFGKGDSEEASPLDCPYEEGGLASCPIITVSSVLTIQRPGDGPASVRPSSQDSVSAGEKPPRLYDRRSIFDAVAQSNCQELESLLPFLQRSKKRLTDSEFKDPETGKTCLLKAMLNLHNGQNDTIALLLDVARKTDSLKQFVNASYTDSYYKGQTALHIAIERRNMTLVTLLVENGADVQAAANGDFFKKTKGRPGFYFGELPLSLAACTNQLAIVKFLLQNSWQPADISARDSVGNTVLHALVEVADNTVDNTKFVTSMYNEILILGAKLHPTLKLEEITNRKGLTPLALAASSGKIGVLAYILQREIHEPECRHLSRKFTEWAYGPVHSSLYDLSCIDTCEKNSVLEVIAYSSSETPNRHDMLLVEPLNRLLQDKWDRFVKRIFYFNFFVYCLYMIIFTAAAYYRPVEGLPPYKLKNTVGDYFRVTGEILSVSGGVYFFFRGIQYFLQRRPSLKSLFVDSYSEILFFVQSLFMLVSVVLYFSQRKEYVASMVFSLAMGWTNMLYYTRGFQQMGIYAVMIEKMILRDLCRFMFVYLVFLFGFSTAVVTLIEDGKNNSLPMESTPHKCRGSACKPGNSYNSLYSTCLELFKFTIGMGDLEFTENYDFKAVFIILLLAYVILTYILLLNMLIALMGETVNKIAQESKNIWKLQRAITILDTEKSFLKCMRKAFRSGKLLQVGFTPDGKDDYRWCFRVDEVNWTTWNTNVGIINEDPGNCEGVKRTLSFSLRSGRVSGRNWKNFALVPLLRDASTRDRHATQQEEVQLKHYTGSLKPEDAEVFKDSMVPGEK
# Procedure: The agonistic or antagonistic action of the substances to be studied on the vanilloid receptor 1 (VR1/TRPV1) of the rat species can be determined with the following assay. In this assay, the Ca^2+ current through the receptor channel is quantified with the aid of a Ca^2+-sensitive dye (Fluo-4 type, Molecular Probes Europe BV, Leiden the Netherlands) in a fluorescent imaging plate reader (FLIPR, Molecular Devices, Sunnyvale, USA).
# Complete medium: 50 ml HAMS F12 Nutrient Mixture (Gibco Invitrogen GmbH, Karlsruhe, Germany) with
# 10% by volume of FCS (fetal calf serum, Gibco Invitrogen GmbH, Karlsruhe, Germany, heat-inactivated);
# 2 mM L-glutamine (Sigma, Munich, Germany);
# 1% by weight of AA solution (antibiotic/antimycotic solution, PAA, Pasching, Austria) and 25 ng/ml of NGF medium (2.5 S, Gibco Invitrogen GmbH, Karlsruhe, Germany)
# Cell culture plate: poly-D-lysine-coated, black 96-hole plates with a clear bottom (96 well black/clear plate, BD Biosciences, Heidelberg, Germany) are additionally coated with laminin (Gibco Invitrogen GmbH, Karlsruhe, Germany) by diluting laminin to a concentration of 100 μg/ml with PBS (Ca—Mg-free PBS, Gibco Invitrogen GmbH, Karlsruhe, Germany). Aliquots having a concentration of 100 μg/ml of laminin are withdrawn and stored at −20° C. The aliquots are diluted with PBS in a ratio of 1:10 to 10 μg/ml of laminin and in each case 50 μl of the solution are pipetted into a well of the cell culture plate. The cell culture plates are incubated at 37° C. for at least two hours, the supernatant solution is removed by suction and the wells are each washed twice with PBS. The coated cell culture plates are stored with supernatant PBS which is not removed until directly before the application of the cells.
# The spinal column is removed from beheaded rats and placed directly into cold HBSS buffer (Hank's buffered saline solution, Gibco Invitrogen GmbH, Karlsruhe, Germany), i.e. placed in an ice bath, which has been admixed with 1% by volume of an AA solution (antibiotic/antimycotic solution, PAA, Pasching, Austria). The spinal column is severed longitudinally and removed from the spinal canal together with fasciae. Subsequently, the dorsal root ganglia (DRGs) are removed and in turn stored in cold HBSS buffer admixed with 1% by volume of an […]. The DRGs freed completely of blood residues and spinal nerves are in each case transferred to 500 μl of cold type 2 collagenase (PAA, Pasching, Austria) and incubated at 37° C. for 35 minutes. After addition of 2.5% by volume of trypsin (PAA, Pasching, Austria), incubation is continued at 37° C. for a further 10 minutes. After complete incubation, the enzyme solution is cautiously pipetted off and the remaining DRGs are each admixed with 500 μl of complete medium.
# The DRGs are each suspended repeatedly, drawn through cannulas No. 1, No. 12 and No. 16 by means of a syringe and transferred to 50 ml Falcon tubes which are made up to 15 ml with complete medium. The contents of each Falcon tube are in each case filtered through a 70 μm Falcon filter insert and centrifuged at 1200 revolutions and room temperature for 10 minutes. The resulting pellet is in each case taken up in 250 μl of complete medium and the cell count is determined.
# The number of cells in the suspension is adjusted to 3 times 10^5 per ml and in each case 150 μl of this suspension are added to one well of the cell culture plates coated as described above. In the incubator, the plates are left to stand at 37° C., 5% by volume of CO2 and 95% relative air humidity for two to three days.
# Subsequently, the cells are laden with 2 μM Fluo-4 and 0.01% by volume of Pluronic F127 (Molecular Probes Europe BV, Leiden, the Netherlands) in HBSS buffer (Hank's buffered saline solution, Gibco Invitrogen GmbH, Karlsruhe, Germany) at 37° C. for 30 min, washed 3× with HBSS buffer and, after a further incubation of 15 minutes, used in the FLIPR assay at room temperature for Ca^2+ measurement. […]
Structure (SMILES),inhibition at 10 µM [1] [%],EC50 ([1]; FLIPR) [µM],activation at 10 µM [2] [%],inhibition at 10 µM [2] [%],EC50 ([2]; FLIPR) [µM],melting point [°C],"IC50 ([1]; FLIPR, antagonistic action) [µM]","IC50 ([2]; FLIPR, antagonistic action) [µM]"
"Cc1ccc2c(c1)[S+]([O-])CC(COC(=O)Nc1ccccc1)(COC(=O)Nc1ccccc1)C2=O (stereo not drawn) [Example Compound 47, 3,3-bis(phenylcarbamoyloxymethyl)-7-methyl-1-oxo-1λ^4-thiochroman-4-one]",59.2,13.4,11.8,61.5,20.3,65 to 73,–,–
"Cc1ccc2c(c1)S(=O)(=O)CC(COC(=O)Nc1ccccc1)(COC(=O)Nc1ccccc1)C2=O [Example Compound 48, 3,3-bis(phenylcarbamoyloxymethyl)-7-methyl-1,1-dioxo-1λ^6-thiochroman-4-one]",81.1,1.85,64.9,88.8,3.4,85 to 95,–,–
"CC(C)(C)c1ccc(NC(=O)OCC2(COC(=O)Nc3ccc(C(C)(C)C)cc3)CSc3ccccc3C2=O)cc1 [Example Compound 50, 3,3-bis(4-tert-butylphenylcarbamoyloxymethyl)thiochroman-4-one]",0,–,0,99.9,–,78 to 85,> 20,5.7
